Data taken from paper PMC4350845, “Polyphosphatase PPN1 of Saccharomyces cerevisiae: Switching of Exopolyphosphatase and Endopolyphosphatase Activities” (PLoS ONE, 2015).

Molecular target: T1, polyphosphatase PPN1 (Saccharomyces cerevisiae, UniProt Q04119)
T1 construct: recombinant, overexpressed in S. cerevisiae CRN/pMB1_PPN1 Sc and purified; proteolytically matured form of ~33 kDa on SDS-PAGE (precursor predicted 78 kDa); no tag mentioned
T1 sequence (Q04119 84-384): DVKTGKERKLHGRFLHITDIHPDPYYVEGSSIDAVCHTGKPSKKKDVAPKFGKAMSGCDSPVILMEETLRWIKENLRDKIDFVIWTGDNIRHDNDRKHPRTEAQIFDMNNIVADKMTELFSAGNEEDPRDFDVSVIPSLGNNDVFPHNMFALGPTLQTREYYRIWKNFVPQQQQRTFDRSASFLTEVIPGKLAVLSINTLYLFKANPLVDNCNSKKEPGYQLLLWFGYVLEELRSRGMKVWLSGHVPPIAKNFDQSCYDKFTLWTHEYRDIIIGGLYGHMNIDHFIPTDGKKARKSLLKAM
Test: inhibition of exopolyphosphatase activity (Pi release from PolyP208)
Format: biochemical
Settings: inhibitor; PolyP208 2.5 mM as Pi, 0.1 mM CoSO4, 200 mM NH4Cl, pH 7.2, 30 C

SMILES | % of control activity at 2.0 mM
O=P(O)(O)OP(=O)(O)O [PPi] | PPi and PolyP3 inhibited Pi release
O=P(O)(O)OP(=O)(O)OP(=O)(O)O [PolyP3] | PPi and PolyP3 inhibited Pi release
